Data on 11 compounds can be found in article PMC4965013, “Open Source Drug Discovery with the Malaria Box Compound Collection for Neglected Diseases and Beyond” (PLoS Pathogens, 2016).

“And” between values parts separate entries of the source, which are not always exact repeats. Identical values can stand only once.

For assay [1], the system named is Neospora caninum Nc-1 tachyzoites. Description: Neospora caninum Nc-Betagal proliferation. The class given is cell-based.
Assay [2] has as its system P. falciparum 3D7 trophozoites. The assay is described as follows: Metabolomic fingerprint profiling LC-MS. The class given is cell-based, Plasmodium falciparum. Set-up: UDP-D-glucose / ADP-D-glucose: unit not given here.
Another assay relates to P. falciparum. Description: EC50 listed in S2 Table Metabolomics (used to set the concentration tested). The class given is cell-based. To be noted: Plasmodium falciparum; EC50 used for Factor_XEC50 in metabolomics; read-out: EC50_nM.
A further assay has as its target T1, PfA-M1 (Plasmodium falciparum, UniProt O96935).
T1 construct: encoding residues 192-1085 of native PfA-M1; hexahistidine (N); TEV cleavage site (ENLYFQS) (N); made in house; host or cells: Escherichia coli BL21 (DE3) Rosetta 2
The assay is described as follows: rPfA-M1 aminopeptidase activity (Florent). Type of assay: biochemical, P. falciparum. The settings on record: for effect on rPfA-M1 in words: 100µM.

A further assay deals with T2, PfA-M17 (Plasmodium falciparum, UniProt Q8IL11).
T2 construct: residues 84-605 of native Plasmodium falciparum leucyl aminopeptidase PfA-M17 (PlasmoDB PF3D7_1446200); hexahistidine (N); TEV cleavage site (N); made in house; host or cells: Escherichia coli BL21 (DE3) Rosetta 2
T2 sequence (Q8IL11 84-605): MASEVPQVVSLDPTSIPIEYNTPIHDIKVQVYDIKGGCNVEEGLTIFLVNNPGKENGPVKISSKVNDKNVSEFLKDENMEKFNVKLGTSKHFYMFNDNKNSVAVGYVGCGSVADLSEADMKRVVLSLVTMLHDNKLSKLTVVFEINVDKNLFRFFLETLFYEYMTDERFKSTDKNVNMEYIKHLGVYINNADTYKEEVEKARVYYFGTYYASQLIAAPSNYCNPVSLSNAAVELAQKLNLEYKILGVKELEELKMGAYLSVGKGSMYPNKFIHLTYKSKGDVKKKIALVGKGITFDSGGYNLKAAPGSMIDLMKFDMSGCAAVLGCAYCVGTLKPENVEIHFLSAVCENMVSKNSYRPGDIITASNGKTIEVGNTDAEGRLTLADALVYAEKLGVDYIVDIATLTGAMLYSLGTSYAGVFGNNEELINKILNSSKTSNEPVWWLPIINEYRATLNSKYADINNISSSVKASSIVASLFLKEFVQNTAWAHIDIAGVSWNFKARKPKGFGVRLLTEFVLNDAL
Description: rPfA-M17 aminopeptidase activity (Florent). The class given is biochemical, P. falciparum. The settings on record: for effect on rPfA-M17 in words: 100µM.

A further assay relates to Atg8-Atg3. Details: method as in ref [38] (a number printed in a supplementary file, which may have a reference list of its own: not looked up in the article's list). To be noted: ref [38]; cited from earlier work.
Assay [3] deals with Trypanosoma brucei rhodesiense STIB 900. To be noted: Run 1 and Run 2; ref [88]; read-out: T. rhodesiense IC50 positive control; cited from earlier work.
Another assay deals with T. b. brucei Squib 427. The settings on record: Run 1 and Run 2; ref [88]; read-out: T. brucei brucei IC50 positive control; cited from earlier work.
The subject of assay [4] is Schistosoma mansoni schistosomula (somules). The assay is described as follows: S. mansoni somules phenotypic screen Caffrey. To be noted: 2.5 µM, 48 h.
Assay [5] relates to Schistosoma mansoni adult males. Description: S. mansoni adult phenotypic and motility screen Caffrey.
The mark [6] stands for this setting: metabolite level change after treatment.

T1 sequence (O96935 192-1085): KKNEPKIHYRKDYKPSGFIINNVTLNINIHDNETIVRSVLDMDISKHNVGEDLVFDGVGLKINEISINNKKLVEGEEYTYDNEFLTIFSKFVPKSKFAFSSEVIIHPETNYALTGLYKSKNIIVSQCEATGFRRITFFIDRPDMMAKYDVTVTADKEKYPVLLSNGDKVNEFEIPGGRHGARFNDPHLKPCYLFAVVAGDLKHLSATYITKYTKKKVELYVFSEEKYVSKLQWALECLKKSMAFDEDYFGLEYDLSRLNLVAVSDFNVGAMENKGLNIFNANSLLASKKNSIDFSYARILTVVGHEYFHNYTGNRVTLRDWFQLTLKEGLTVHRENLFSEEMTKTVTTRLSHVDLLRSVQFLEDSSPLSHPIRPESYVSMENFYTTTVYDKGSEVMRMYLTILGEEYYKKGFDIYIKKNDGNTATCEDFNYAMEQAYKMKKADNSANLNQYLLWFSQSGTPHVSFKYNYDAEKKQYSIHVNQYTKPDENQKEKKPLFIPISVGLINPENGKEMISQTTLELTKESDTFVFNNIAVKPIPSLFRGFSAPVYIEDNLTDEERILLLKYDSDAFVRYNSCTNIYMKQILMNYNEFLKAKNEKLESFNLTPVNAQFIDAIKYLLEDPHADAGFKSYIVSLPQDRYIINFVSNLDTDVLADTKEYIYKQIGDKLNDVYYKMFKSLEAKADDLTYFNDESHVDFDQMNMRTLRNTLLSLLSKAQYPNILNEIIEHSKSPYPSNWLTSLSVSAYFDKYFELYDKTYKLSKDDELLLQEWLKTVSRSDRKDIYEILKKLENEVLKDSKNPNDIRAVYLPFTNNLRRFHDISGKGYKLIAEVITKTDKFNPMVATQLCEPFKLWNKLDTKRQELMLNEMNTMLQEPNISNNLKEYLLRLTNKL

For `CCOc1ccc2cc(-c3nn(CC4CCN(C)CC4)c4ncnc(N)c34)ccc2c1` [BKI-1294, reference compound], in [1] (1µM), the “N. caninum proliferation, positive control” value was “complete block of proliferation”.

As for `Cc1ccc(NC(=O)Nc2cccc(Cl)c2)cc1F` [MMV000911], the “non-toxic N. caninum actives” value in assay [1] is on record as “non-toxic N. caninum actives”.

For `CN(C)c1ccc(C=Cc2nc(=O)c3ccccc3o2)cc1` [MMV006309], the “non-toxic N. caninum actives” value in assay [1] is listed as “non-toxic N. caninum actives”. The Acetyllysine in assay [2] (S2 Table Metabolomics, metabolite Acetyllysine) is -0.06229. Also, the N-acetyl-L-ornithine in assay [2] (S2 Table Metabolomics, metabolite N-acetyl-L-ornithine) was found to be 0.06709. Further, the N-carbamoyl-L-aspartate in assay [2] (S2 Table Metabolomics, metabolite N-carbamoyl-L-aspartate) amounted to 2.985. In addition, the NADPH in assay [2] (S2 Table Metabolomics, metabolite NADPH) was -0.04695. For the same compound, the dAMP in assay [2] (S2 Table Metabolomics, metabolite dAMP) is recorded as -0.4457. Besides, in assay [2] (S2 Table Metabolomics, metabolite dCMP), the dCMP was determined as 0.07949. The dTDP in assay [2] (S2 Table Metabolomics, metabolite dTDP) is reported as -0.6452. Moreover, the dTMP in assay [2] (S2 Table Metabolomics, metabolite dTMP) is reported as -0.3602. Moreover, the dTTP in assay [2] (S2 Table Metabolomics, metabolite dTTP) is -0.2468. For the same compound, the dihydroorotate in assay [2] (S2 Table Metabolomics, metabolite dihydroorotate) was found to be 3.691. Further, the orotate in assay [2] (S2 Table Metabolomics, metabolite orotate) was -0.6105. Further, the DLH in assay [2] (S2 Table Metabolomics, peptide DLH) was -0.3184. Moreover, in [2] (S2 Table Metabolomics, peptide DLS/SDL/SID), the DLS/SDL/SID is given as -0.2456. In assay [2] (S2 Table Metabolomics, peptide PD), this compound came in with a PD of 0.4341. The compound further came in with a PEE in assay [2] (S2 Table Metabolomics, peptide PEE) of -0.1161. In [2] (S2 Table Metabolomics, peptide PVNF), the PVNF is on record as -0.4902. Also, the 3-phosphoglycerate in [2] (metabolite 3-phosphoglycerate, S2 Table Metabolomics) is reported as -0.1315. The ADP-D-glucose in assay [2] (metabolite ADP-D-glucose, S2 Table Metabolomics) came out at 0.1572. The ATP in assay [2] (metabolite ATP, S2 Table Metabolomics) turned out to be 0.2918. Besides, in assay [2] (metabolite CDP, S2 Table Metabolomics, change in metabolite level after compound treatment), the CDP is listed as -0.5525. The D-sedoheptulose-1/7-phosphate in assay [2] (metabolite D-sedoheptulose-1/7-phosphate, S2 Table Metabolomics, change in metabolite level after compound treatment) came out at 0.4312. Besides, the FAD in assay [2] (metabolite FAD, S2 Table Metabolomics) was determined as 0.6491. Besides, the GMP in assay [2] (metabolite GMP, S2 Table Metabolomics, change in metabolite level after compound treatment) worked out at 2.281. Besides, the “NAD+” value in assay [2] (metabolite NAD+, S2 Table Metabolomics) stood at 0.2407. Moreover, the “NADP+” value in [2] (metabolite NADP+, S2 Table Metabolomics) came out at 0.05923. The “Octoluse Bisphosphate” value in assay [2] (metabolite Octoluse Bisphosphate, S2 Table Metabolomics, change in metabolite level after compound treatment) came out at 0.03854. Also, the Pyroglutamic acid in assay [2] (metabolite Pyroglutamic acid, S2 Table Metabolomics) is -0.251. The UDP-D-glucose in assay [2] (metabolite UDP-D-glucose, S2 Table Metabolomics) is 0.2158. Further, the UDP-D-glucuronate in assay [2] (metabolite UDP-D-glucuronate, S2 Table Metabolomics) is reported as 0.1905. The UDP-N-acetyl-glucosamine in [2] (metabolite UDP-N-acetyl-glucosamine, S2 Table Metabolomics) amounted to 0.2147. For the same compound, the UDP in assay [2] (metabolite UDP, S2 Table Metabolomics, change in metabolite level after compound treatment) is listed as -0.5733. Further, the UMP in assay [2] (metabolite UMP, S2 Table Metabolomics, change in metabolite level after compound treatment) is -0.8586. Besides, the UTP in assay [2] (metabolite UTP, S2 Table Metabolomics, change in metabolite level after compound treatment) was -0.4965. Moreover, the a-ketoglutarate in assay [2] (metabolite a-ketoglutarate, S2 Table Metabolomics) is given as -0.2334. The citrate/isocitrate in assay [2] (metabolite citrate/isocitrate, S2 Table Metabolomics, change in metabolite level after compound treatment) was -0.148. The cytidine in [2] (metabolite cytidine, S2 Table Metabolomics) is 0.1715. Besides, the dATP in assay [2] (metabolite dATP, S2 Table Metabolomics) is on record as 0.5165. The dGMP/AMP in assay [2] (metabolite dGMP/AMP, S2 Table Metabolomics, change in metabolite level after compound treatment) was -0.4086. In assay [2] (metabolite fumarate, S2 Table Metabolomics, change in metabolite level after compound treatment), the fumarate is reported as 0.4652. For the same compound, the glucose-1/6-phosphate in assay [2] (metabolite glucose-1/6-phosphate, S2 Table Metabolomics, change in metabolite level after compound treatment) turned out to be 0.457. The glycerate in [2] (metabolite glycerate, S2 Table Metabolomics, change in metabolite level after compound treatment) came to 0.3869. Besides, the guanine in [2] (metabolite guanine, S2 Table Metabolomics, change in metabolite level after compound treatment) is on record as 0.4747. Further, the guanosine in assay [2] (metabolite guanosine, S2 Table Metabolomics, change in metabolite level after compound treatment) was found to be 0.5548. Further, the hypoxanthine in [2] (metabolite hypoxanthine, S2 Table Metabolomics) was -0.07215. For the same compound, in [2] (metabolite indole, S2 Table Metabolomics), the indole is listed as -0.02242. Besides, the inosine in assay [2] (metabolite inosine, S2 Table Metabolomics, change in metabolite level after compound treatment) is listed as 0.08258. Also, in [2] (setting [6]), the 2_3-Diphosphoglyceric acid is 0.3655, the 4-phosphopantothenate was -0.02209, the 6-phospho-D-gluconate worked out at 0.4028 and the FMN amounted to 0.2378. Further, in assay [2] (setting [6]), the IMP was -0.05126, the Pyrophosphate stood at 0.2614, the Sedoheptoluse bisphosphate was 0.2668 and the cyclic-AMP is listed as 0.09044. For the same compound, in assay [2] (setting [6]), the glutathione disulfide is 0.5032, the lactate was 0.1016 and the myo-inositol is recorded as 0.2436. Moreover, the nicotinate in [2] (metabolite nicotinate, S2 Table Metabolomics) is recorded as 0.1263. Further, the ornithine in assay [2] (metabolite ornithine, S2 Table Metabolomics) was -0.005843. Also, the phosphoenolpyruvate in assay [2] (metabolite phosphoenolpyruvate, S2 Table Metabolomics) is -0.2041. Further, in [2] (metabolite pyruvate, S2 Table Metabolomics, change in metabolite level after compound treatment), the pyruvate is listed as -0.06331. Further, the ribose-phosphate in assay [2] (metabolite ribose-phosphate, S2 Table Metabolomics) is listed as -0.02548. The sarcosine/alanine in assay [2] (metabolite sarcosine/alanine, S2 Table Metabolomics, change in metabolite level after compound treatment) turned out to be 0.5971. The sn-glycerol-3-phosphate in assay [2] (metabolite sn-glycerol-3-phosphate, S2 Table Metabolomics) is -0.04439. Further, the succinate/methylmalonic acid in assay [2] (metabolite succinate/methylmalonic acid, S2 Table Metabolomics, change in metabolite level after compound treatment) is 0.1372. The uridine in assay [2] (metabolite uridine, S2 Table Metabolomics, change in metabolite level after compound treatment) is listed as -0.2519. Also, in assay [2] (metabolite xanthosine, S2 Table Metabolomics, change in metabolite level after compound treatment), the xanthosine stood at 0.3479. For the same compound, in the assay on P. falciparum, the EC50 came out at 51.5 nM.

Consider `COc1ccc(Nc2cc(C)nc(NCc3ccccc3)n2)cc1` [MMV006825], for which the “effect on rPfA-M1 in words” value at PfA-M1 is “particularly effective”. Besides, the “effect on rPfA-M17 in words” value at PfA-M17 is given as “only moderately inhibiting”.

Take `O=C(Nc1ccc(N2CCN(Cc3ccccc3)CC2)cc1)c1cccs1` [MMV019670]: the “non-toxic N. caninum actives” value in assay [1] is given as “non-toxic N. caninum actives”.

For the compound `O=C(Nc1nc(-c2ccccn2)cs1)c1ccccc1Br` [MMV665909], the “PPI inhibitors of Atg8-Atg3 interaction” value in the assay with Atg8-Atg3 is recorded as “PPI inhibitors”.

Take `CN(C)c1ccc(-c2nc3cc(N)ccc3[nH]2)cc1` [MMV666102]: at PfA-M1, the “effect on rPfA-M1 in words” value was “particularly effective”.

In the case of `COc1ccc(C2c3ccc4ccccc4c3Oc3ncn(CCCn4ccnc4)c(=N)c32)cc1OC` (stereo not shown) [MMV667490], at PfA-M1, the “effect on rPfA-M1 in words” value was “particularly effective”. Also, the “effect on rPfA-M17 in words” value on PfA-M17 was “only moderately inhibiting”.

As a reminder, the IC50 is the point on the concentration scale where inhibition reaches its midpoint. In the case of `Cc1ccc(C(=O)Nc2ccc(S(=O)(=O)O)c3cc(S(=O)(=O)O)cc(S(=O)(=O)O)c23)cc1NC(=O)c1cccc(NC(=O)Nc2cccc(C(=O)Nc3cc(C(=O)Nc4ccc(S(=O)(=O)O)c5cc(S(=O)(=O)O)cc(S(=O)(=O)O)c45)ccc3C)c2)c1` [Suramin, reference compound], the IC50 in assay [3] was 70 nM and 50 nM; in the assay with T. b. brucei Squib 427, 60 nM and 50 nM.

A word on the inhibition: it is how much of the control response was suppressed. As for `CC(C)C[C@H](NC(=O)[C@@H](O)[C@H](N)Cc1ccccc1)C(=O)O` [bestatin, reference compound], the inhibition at 100 µM at PfA-M1 came to 57%; against PfA-M17 it was 100%.

Take `O=C(Nc1ccc([N+](=O)[O-])cc1Cl)c1cc(Cl)ccc1O` [niclosamide]: the somule severity score in [4] was found to be 4. Moreover, the “S. mansoni adult males 48hr motility assay” value in assay [5] (48 h, 5µM) is “zero”. In addition, in assay [5] (48hr at 5 µM), the “S. mansoni adult males visual tox scale, 0 = none, 4=most damaged” value stood at 4.
